Laboratory results published in the NIST ThermoML archive (doi:10.1021/je900596d).

Details: Liquid; for mass density: Vibrating tube method

FC(F)=C(F)C(F)(F)F [hexafluoropropene]
Details	mass density [kg/m3]	vapor or sublimation pressure [kPa]
353.13 K, 6254.1 kPa	1084.82	–
353.13 K, 6293.2 kPa	1085.83	–
353.13 K, 6333.5 kPa	1086.9	–
353.13 K, 6371.8 kPa	1087.85	–
353.13 K, 6409 kPa	1088.79	–
353.13 K, 6445.8 kPa	1089.69	–
353.13 K, 6484.6 kPa	1090.62	–
353.13 K, 6524.7 kPa	1091.6	–
353.13 K, 6563.9 kPa	1092.58	–
353.13 K, 6604.4 kPa	1093.48	–
353.13 K, 6642.7 kPa	1094.43	–
353.13 K, 6683.7 kPa	1095.45	–
353.13 K, 6726.1 kPa	1096.44	–
353.13 K, 6764 kPa	1097.33	–
353.13 K, 6802.8 kPa	1098.22	–
353.13 K, 6841.6 kPa	1099.15	–
353.13 K, 6882 kPa	1100.04	–
353.13 K, 6922.2 kPa	1101.01	–
353.13 K, 6960.8 kPa	1101.88	–
353.13 K, 7001.3 kPa	1102.71	–
353.13 K, 7038.1 kPa	1103.6	–
353.13 K, 7076.1 kPa	1104.43	–
353.13 K, 7114.4 kPa	1105.3	–
353.13 K, 7154.8 kPa	1106.21	–
353.13 K, 7191.9 kPa	1106.87	–
353.13 K, 7231.5 kPa	1107.79	–
353.13 K, 7270.9 kPa	1108.59	–
353.13 K, 7309.7 kPa	1109.52	–
353.13 K, 7347.2 kPa	1110.31	–
353.13 K, 7384.6 kPa	1111.14	–
353.13 K, 7426.6 kPa	1111.94	–
353.13 K, 7521.7 kPa	1113.95	–
353.13 K, 7570.3 kPa	1114.91	–
353.13 K, 7620.7 kPa	1116.02	–
353.13 K, 7669.4 kPa	1116.98	–
353.13 K, 7719.8 kPa	1117.99	–
353.13 K, 7771.4 kPa	1119.1	–
353.13 K, 7821.6 kPa	1120.08	–
353.13 K, 7875 kPa	1121.14	–
353.13 K, 7925.8 kPa	1122.03	–
353.13 K, 7977.1 kPa	1123.21	–
353.13 K, 8027.6 kPa	1124.05	–
353.13 K, 8077.8 kPa	1124.94	–
353.13 K, 8128 kPa	1125.99	–
353.13 K, 8179.4 kPa	1126.95	–
353.13 K, 8229.7 kPa	1127.86	–
353.13 K, 8281.6 kPa	1128.88	–
353.13 K, 8333.3 kPa	1129.8	–
353.13 K, 8384.4 kPa	1130.91	–
353.13 K, 8434.2 kPa	1131.83	–
353.13 K, 8483.8 kPa	1132.74	–
353.13 K, 8533 kPa	1133.6	–
353.13 K, 8585.1 kPa	1134.64	–
353.13 K, 8636.6 kPa	1135.48	–
353.13 K, 8688.1 kPa	1136.4	–
353.13 K, 8739.4 kPa	1137.27	–
353.13 K, 8787.9 kPa	1138.25	–
353.13 K, 8838.8 kPa	1138.97	–
353.13 K, 8890.6 kPa	1140.08	–
353.13 K, 8940.9 kPa	1140.78	–
353.13 K, 8990.5 kPa	1141.72	–
353.13 K, 9042.5 kPa	1142.55	–
353.13 K, 9093.8 kPa	1143.46	–
353.13 K, 9145.5 kPa	1144.29	–
353.13 K, 9199.3 kPa	1145.07	–
353.13 K, 9251.5 kPa	1145.95	–
353.13 K, 9300.6 kPa	1146.86	–
353.13 K, 9353.4 kPa	1147.68	–
353.13 K, 9405.2 kPa	1148.61	–
353.13 K, 9453.7 kPa	1149.26	–
353.13 K, 9503.3 kPa	1150.03	–
353.13 K, 9555.6 kPa	1150.83	–
353.13 K, 9607.5 kPa	1151.69	–
353.13 K, 9658.7 kPa	1152.54	–
353.13 K, 9709.8 kPa	1153.31	–
353.13 K, 9762.3 kPa	1154.19	–
353.13 K, 9811.9 kPa	1154.85	–
353.13 K, 9863.5 kPa	1155.62	–
353.13 K, 9915.1 kPa	1156.42	–
353.13 K, 9969.2 kPa	1157.38	–
353.23 K, Closed cell (Static) method	–	2782.3
355.18 K, 2917.9 kPa	845.6	–
355.18 K, 2920.4 kPa	846.43	–
355.18 K, 2923.2 kPa	847.74	–
355.18 K, 2925.7 kPa	848.75	–
355.18 K, 2927.7 kPa	849.49	–
355.18 K, 2929.8 kPa	850.21	–
355.18 K, 2931.8 kPa	850.86	–
355.18 K, 2933.8 kPa	851.6	–
355.18 K, 2936.9 kPa	852.8	–
355.18 K, 2939.2 kPa	853.64	–
355.18 K, 2941.8 kPa	854.46	–
355.18 K, 2944.4 kPa	855.06	–
355.18 K, 2946.6 kPa	855.85	–
355.18 K, 2948.8 kPa	856.52	–
355.18 K, 2952.8 kPa	857.85	–
355.18 K, 2960 kPa	859.85	–
355.18 K, 2967.7 kPa	861.92	–
355.18 K, 2975.4 kPa	863.9	–
355.18 K, 2989.1 kPa	868.46	–
355.18 K, 2995.9 kPa	870.43	–
355.18 K, 3004.5 kPa	872.46	–
355.18 K, 3019.2 kPa	876.04	–
355.18 K, 3027.3 kPa	878.11	–
355.18 K, 3033.9 kPa	879.53	–
355.18 K, 3039.9 kPa	880.6	–
355.18 K, 3094.7 kPa	890.53	–
355.18 K, 3105.5 kPa	892.47	–
355.18 K, 3126.6 kPa	896.05	–
355.18 K, 3136.9 kPa	897.86	–
355.18 K, 3146.9 kPa	899.37	–
355.18 K, 3157.8 kPa	901.09	–
355.18 K, 3167.8 kPa	902.86	–
355.18 K, 3178.7 kPa	904.31	–
355.18 K, 3189.5 kPa	906.01	–
355.18 K, 3200.1 kPa	907.48	–
355.18 K, 3210.7 kPa	909	–
355.18 K, 3221.2 kPa	910.46	–
355.18 K, 3231.6 kPa	911.83	–
355.18 K, 3252.1 kPa	914.62	–
355.18 K, 3263.1 kPa	916.04	–
355.18 K, 3273.1 kPa	917.41	–
355.18 K, 3283.4 kPa	918.63	–
355.18 K, 3294.3 kPa	920.14	–
355.18 K, 3304.3 kPa	921.35	–
355.18 K, 3325.4 kPa	923.75	–
355.18 K, 3347.5 kPa	926.36	–
355.18 K, 3368.1 kPa	928.74	–
355.18 K, 3388.8 kPa	930.98	–
355.18 K, 3410.2 kPa	933.28	–
355.18 K, 3453.4 kPa	937.53	–
355.18 K, 3496.3 kPa	941.66	–
355.18 K, 3516.9 kPa	943.53	–
